# According to patent US7803408B2, “Method of treating endothelial injury” (East Carolina University, priority 1996, dated 2010):
# Where two headings read alike, the source gives them in different places.
# How the values were obtained:
# [1] = doses of up to 1,500 Units/kg for three to four weeks; cited from earlier work
# [2] = system: Human umbilical vein endothelial cells (HUVECs); type: cell-based
# Experimental: (§1) Cell Culture. Human umbilical vein endothelial cells (HUVECs) were obtained from Caesarian section derived cords. HUVECs were cultured by standard methodology in 25 cm^2 T-flasks (Corning Inc., Corning, N.Y.) coated with 0.5% porcine skin gelatin (Sigma Chemical Co., St. Louis, Mo.). Medium 199 (Life Technologies, Gaithersburg, Md.), supplemented with 20% defined fetal bovine serum (FBS) (Hyclone, Logan, Utah), 16 U/ml heparin (Sigma), 50 μg/ml bovine hypothalamus derived endothelial mitogen (Biomedical Technologies, Stoughton, Mass.), 100 U/ml penicillin and 100 μg/ml streptomycin was used for the growth of HUVECs. Endothelial cells were characterized by homogenous and typical cobblestone morphology, von Willebrand factor antigen positively, and the presence of Weibel-Palade bodies, as are known in the art.
# Protection/Inhibition Assay. The number of metabolically active cells after exposure of endothelial cell cultures to test agents was assessed using a calorimetric method. This assay utilizes solutions of a tetrazolium compound [3-(4,5-dimethylthiazol-2-yl)-5-(3-carboxymethoxyphenyl)-2-(4 Sulfophenyl)-2H-tetrazolium] (MTS) and an electron coupling reagent, phenazine methosulfate (PMS; available from Promega Corp., Madison, Wis.). See Denizot and Lang, J. Immunol. Methods 89:271 (1986); Promega Corporation Technical Bulletins 112, 152 and 169). […] The amount of formazan is measured at 490 nm absorbance and is directly proportional to the numbers of living cells in culture.
# (§2) Endothelial cells grown in the complete (supplemented) M199 medium were harvested in the log phase. […] The number and viability of the cells was determined using a hemocytometer and the trypan blue staining, respectively. […] The absorbance of each well at 490 nm was recorded using an ELISA plate reader. The LD50 and the effect of the various treatments on cell viability and chemosensitivity were determined by plotting the corrected absorbance at 490 nm versus the concentration of the additive (EPO, chemotherapeutic agent, or combinations thereof). […]
# [3] = system: Human umbilical vein endothelial cells (HUVECs); assay: Protection/inhibition assay, EPO added two hours after cisplatin (MTS/PMS); type: cell-based
# Experimental: as §1
# Protection/Inhibition Assay. The number of metabolically active cells after exposure of endothelial cell cultures to test agents was assessed using a calorimetric method. This assay utilizes solutions of a tetrazolium compound [3-(4,5-dimethylthiazol-2-yl)-5-(3-carboxymethoxyphenyl)-2-(4 Sulfophenyl)-2H-tetrazolium] (MTS) and an electron coupling reagent, phenazine methosulfate (PMS; available from Promega Corp., Madison, Wis.). […] The amount of formazan is measured at 490 nm absorbance and is directly proportional to the numbers of living cells in culture.
# as §2
# Endothelial cell cultures were prepared as described in Example 1. […] Endothelial cell viability was assessed using the MTS/PMS colorimetric assay described in Example 1.
# [4] = system: human umbilical vein endothelial cells; conditions: cited from earlier work
# [5] = system: bovine capillary endothelial cells; conditions: cited from earlier work
# [6] = system: Human umbilical vein endothelial cells (HUVECs); type: cell-based; remark: listed apart in the source
# Experimental: as §1, with “Endothelial cells were characterized by homogenous and typical cobblestone morphology, von Willebrand factor antigen positively, and the presence of Weibel-Palade bodies, as are known in the art.” left out
# Protection/Inhibition Assay. The number of metabolically active cells after exposure of endothelial cell cultures to test agents was assessed using a calorimetric method. […] The amount of formazan is measured at 490 nm absorbance and is directly proportional to the numbers of living cells in culture.
# Endothelial cells grown in the complete (supplemented) M199 medium were harvested in the log phase. […] The number and viability of the cells was determined using a hemocytometer and the trypan blue staining, respectively. […] The absorbance of each well at 490 nm was recorded using an ELISA plate reader. […]
# Endothelial cell cultures were prepared as described in Example 1. […] Endothelial cell viability was assessed using the MTS/PMS calorimetric assay described in Example 1.
substance,measurement,setting,value
erythropoietin [EPO],toxic effects due to EPO itself,[1],without toxic effects
same,effect on endothelial cell cultures vs cisplatin alone,[2]; 0.15 to 1.25 U/ml EPO simultaneously with 1 μg/ml cisplatin,protected from the damaging effects of cisplatin
same,number of viable cells greater than in control cultures treated with cisplatin only,[2]; 0.3 U/ml EPO simultaneously with 1 μg/ml cisplatin,approximately 30%
same,endothelial cell growth vs cisplatin alone,[2]; 5 to 20 U/ml EPO simultaneously with 1 μg/ml cisplatin,inhibited
same,effect on endothelial cell cultures vs cisplatin alone,[3]; 0.15 to 5 U/ml EPO two hours following 1 μg/ml cisplatin,protected from the damaging effects of cisplatin
same,number of viable cells greater than that of controls,[3]; 1.25 U/ml EPO two hours after 1 μg/ml cisplatin,34%
same,cell viability vs controls (cisplatin only),[3]; 10 to 20 U/ml EPO two hours after 1 μg/ml cisplatin,reduced over that seen in controls
same,mitogenic and chemoattractant (migratory) effect,[4],exerts a mitogenic and chemoattractant (migratory) effect
same,mitogenic and chemoattractant (migratory) effect,[5],exerts a mitogenic and chemoattractant (migratory) effect
same,reduction of cell growth compared to controls,[6]; 2.5 U/ml EPO two hours prior to cisplatin,48%
same,reduction of cell growth compared to controls,[6]; 5 U/ml EPO two hours prior to cisplatin,58%
